Assay results as given in publication PMC11725774 (Cancer Research Communications, 2025).
Where two headings read alike, the source gives them in different places.

Legend:
MOLM-13 cells = test: Growth inhibition of AML cell line; assay type: cell-based; conditions: Homo sapiens, mean ± SD
Method: (§1) MV-4-11 cells expressing NRAS^G12D were prepared by transduction with a lentiviral vector encoding the NRAS^G12D mutation. Assays using a panel of parental Ba/F3 into which an additional copy of either WT or a mutant form of FLT3 was introduced were performed at Kyinno Biotechnology Co., Ltd. All cell lines were short tandem repeat authenticated at ATCC or at DSMZ when originally obtained, and no further authentication was done after receipt of the cells in the laboratory.
(§2) Assays using Ba/F3 cells expressing WT and mutant forms of FLT3 were performed by Kyinno Biotechnology. The cells were cultured in the medium recommended by the source for each cell line. Growth inhibition assays were performed using either Cell Titer 96 Aqueous One Solution Cell Proliferation assay (Promega, # G3581) or CCK8 (Dojindo, # CK-04). […] IC50 values were determined from growth inhibition curves fitted using GraphPad Prism and a nonlinear regression model with sigmoidal dose response. Unless otherwise indicated, data are presented as mean ± SEM.

CYP2C8 = CYP2C8 (Homo sapiens, UniProt P10632); test: CYP inhibition; assay type: in vitro ADME
CYP2C9 = CYP2C9 (Homo sapiens, UniProt P11712); test: CYP inhibition; assay type: in vitro ADME
[1] = Metabolism by liver microsomes; assay type: in vitro ADME, human
Pharmacokinetics in dog = assay type: in vivo
[2] = tested on: MV-4-11 cells inoculated orthotopically; test: Orthotopic AML xenograft survival; assay type: in vivo, NOD/SCID mice; conditions: oral TUS 30 mg/kg every day; vehicle 42 days
Method: (§3) For subcutaneous inoculation, MV-4-11 and MOLM-14 FLT3-ITD/F691L cells were mixed with BD Matrigel Matrix (1:0.5 ratio), and 2 to 5 × 10^6 cells in 0.15 mL were inoculated subcutaneously in NOD/SCID mice. Tumor size was assessed using a Vernier caliper 2 to 3 times weekly and volume was calculated using the formula for an ellipsoid sphere. For orthotopic inoculation, MOLM-14-Luc/GFP cells (2 × 10^6 cells in 0.03 mL PBS) or MV-4-11-Luc and MOLM-13-Luc cells (1 × 10^6 cells in 50 μL Hank’s balanced salt solution) were injected into the left tibia of NOD/SCID mice. Tumor growth was monitored weekly by bioluminescence imaging using an IVIS Lumina Series III In vivo imaging system (PerkinElmer Inc.). The Institutional Animal Care and Use Committee of the Hanmi Research Center approved the animal study protocol.
(§4) For both subcutaneous and bone marrow orthotopic models, after confirming tumor formation by palpation or bioluminescence imaging, mice were randomly assigned into experimental groups.
(§5) A P value less than 0.05 was considered statistically significant.

[3] = tested on: MOLM-13 cells inoculated orthotopically; test: Orthotopic AML xenograft survival; assay type: in vivo, NOD/SCID mice; conditions: oral TUS 30 mg/kg every day; vehicle 37 days
Method: as §3, §4, §5

[4] = tested on: MOLM-14 cells inoculated orthotopically; test: Orthotopic AML xenograft survival; assay type: in vivo, NOD/SCID mice; conditions: oral TUS 30 mg/kg every day; vehicle 17 days
Method: as §3, §4, §5

[5] = tested on: Ba/F3 cells FLT3 ITD/F691L; test: Growth inhibition of Ba/F3 cells; assay type: cell-based, murine; conditions: Mus musculus, BaF3
Method: as §1, §2

Ba/F3 cells FLT3 WT = test: Growth inhibition of Ba/F3 cells; assay type: cell-based, murine
Method: as §1, §2

Ba/F3 cells FLT3 D835Y = test: Growth inhibition of Ba/F3 cells; assay type: cell-based, murine; conditions: Mus musculus
Method: as §1, §2

[6] = tested on: Ba/F3 cells FLT3 ITD/D835Y; test: Growth inhibition of Ba/F3 cells; assay type: cell-based, murine; conditions: Mus musculus, BaF3
Method: as §1, §2

Ba/F3 cells FLT3 ITD = test: Growth inhibition of Ba/F3 cells; assay type: cell-based, murine; conditions: Mus musculus
Method: as §1, §2

[7] = Tolerability in orthotopic AML models; assay type: in vivo; conditions: daily dosing at 30 mg/kg, all three orthotopic models
Source text: ; Fig. 3A). The increase in the MOLM-13 model was from 37 to 75 days (P < 0.0001; Fig. 3B) and in the MOLM-14 model, it was from 17 to 65 days (Fig. 3C).

[8] = Pharmacokinetics and tissue distribution in mice; assay type: in vivo
[9] = tested on: BIM in parental MOLM-14 cells; test: Western blot of apoptotic proteins; conditions: 75 nmol/L TUS, 48-hour exposure
MOLM-14 cells (parental) = test: Growth inhibition of AML cell line; assay type: cell-based, human; conditions: Homo sapiens, MOLM-14
Method: as §1, §2

[10] = Repeat daily dose toxicity and safety pharmacology in rats; assay type: in vivo
Source text: In both species, all adverse events were reversible. There were no alterations in clinical chemistry parameters. Neuropharmacology and respiratory function assessment in rats disclosed no concerns.

TUS/R line 4 (MOLM-14) = test: Growth inhibition of TUS-resistant subline; assay type: cell-based, human; conditions: Homo sapiens
[11] = mouse, plasma, mice, oral doses of 1, 3, 10, and 30 mg/kg

Chain of CYP2C9 (P11712 whole entry): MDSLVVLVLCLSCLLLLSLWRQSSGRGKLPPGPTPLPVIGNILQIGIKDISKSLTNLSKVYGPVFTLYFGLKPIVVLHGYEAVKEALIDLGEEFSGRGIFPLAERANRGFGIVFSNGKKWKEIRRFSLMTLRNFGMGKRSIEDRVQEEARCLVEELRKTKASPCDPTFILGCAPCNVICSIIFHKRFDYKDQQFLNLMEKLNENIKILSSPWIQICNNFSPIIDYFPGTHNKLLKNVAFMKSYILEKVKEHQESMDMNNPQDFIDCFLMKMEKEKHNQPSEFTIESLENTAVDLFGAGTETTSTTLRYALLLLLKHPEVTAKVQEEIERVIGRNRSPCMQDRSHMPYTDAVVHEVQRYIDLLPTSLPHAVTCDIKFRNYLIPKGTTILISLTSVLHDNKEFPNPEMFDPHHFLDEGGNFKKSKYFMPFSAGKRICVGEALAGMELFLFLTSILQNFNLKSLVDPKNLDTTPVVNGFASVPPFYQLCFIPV
Chain of CYP2C8 (P10632 whole entry): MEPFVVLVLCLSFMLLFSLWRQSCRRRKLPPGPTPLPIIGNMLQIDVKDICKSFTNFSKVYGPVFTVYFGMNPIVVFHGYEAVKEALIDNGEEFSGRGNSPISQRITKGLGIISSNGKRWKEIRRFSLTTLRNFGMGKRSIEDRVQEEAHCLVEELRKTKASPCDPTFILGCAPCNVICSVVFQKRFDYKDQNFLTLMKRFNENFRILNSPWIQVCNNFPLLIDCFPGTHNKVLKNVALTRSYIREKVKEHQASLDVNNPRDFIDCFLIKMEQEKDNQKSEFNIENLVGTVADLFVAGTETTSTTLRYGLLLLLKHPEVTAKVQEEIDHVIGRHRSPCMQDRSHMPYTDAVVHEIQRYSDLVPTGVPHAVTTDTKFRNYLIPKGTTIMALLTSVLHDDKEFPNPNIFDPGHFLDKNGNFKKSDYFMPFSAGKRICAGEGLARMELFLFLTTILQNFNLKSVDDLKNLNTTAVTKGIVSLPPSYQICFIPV

For Cc1ccc2c(-c3nc(Nc4cc(CN5C[C@@H](C)N[C@@H](C)C5)cc(C5CC5)c4)ncc3Cl)c[nH]c2c1 [TUS, Tuspetinib], the GI50 (MOLM-13 cells) was 5.2 ± 0.9 nM, the Ki (CYP2C8) was < 1000 nM and the Ki (CYP2C9) was < 1000 nM. The “metabolism by human liver microsomes” value [1] was “metabolized by human liver microsomes”, the “dose proportionality of AUC” value (Pharmacokinetics in dog) was “linearly proportional to dose” and the bioavailability (Pharmacokinetics in dog; in vivo, oral) was 99%. The median survival [2] was 147 days, the median survival [3] was 75 days and the median survival [4] was 65 days. For the same compound, the GI50 [5] was 56 nM, the GI50 (Ba/F3 cells FLT3 WT; Ba/F3 FLT3 WT) was < 9.1 nM and the GI50 (Ba/F3 cells FLT3 WT; Mus musculus, BaF3, Ba/F3 FLT3 WT, read-out: GI50) was 9.1 nM. The GI50 (Ba/F3 cells FLT3 D835Y; BaF3, Ba/F3 FLT3 D835Y) was < 9.1 nM, the GI50 (Ba/F3 cells FLT3 D835Y; BaF3, Ba/F3 FLT3 D835Y, mean ± SD, read-out: GI50) was 7.3 ± 3.5 nM and the GI50 [6] was 16 nM. For the same compound, the GI50 (Ba/F3 cells FLT3 ITD; BaF3, Ba/F3 FLT3 ITD) was < 9.1 nM, the GI50 (Ba/F3 cells FLT3 ITD; BaF3, Ba/F3 FLT3 ITD, mean ± SD, read-out: GI50) was 2.5 ± 0.4 nM and the “tolerability / weight loss” value [7] was “well tolerated in mice with no significant weight loss”. For the same compound, the “dose proportionality of systemic exposure” value ([8]; mice, oral 1 to 30 mg/kg) was “greater than dose proportional”, the clearance ([8]; mouse, plasma, male mice, single intravenous dose of 3 mg/kg) was 5 mL/min/kg and the Vd ([8]; mouse, plasma, male mice, single intravenous dose of 3 mg/kg, read-out: Vss) was 2.4 L/kg. The half-life ([8]; mouse, plasma, male mice, single intravenous dose of 3 mg/kg, read-out: terminal plasma half-life (converted)) was 5.5 h, the Tmax [8, 11] was 1 to 4 h and the bioavailability [8, 11] was 21.4 to 47.2%. The “increase of BIM” value [9] was 10 fold, the IC50 (MOLM-14 cells (parental); growth inhibition, three independent experiments, read-out: IC50 (nmol/L), Mean ± SEM, MOLM-14 parental) was 2.3 ± 0.6 nmol/L and the GI50 (MOLM-14 cells (parental); mean ± SEM (Supplementary Table 6), read-out: GI50 (nM) Parental MOLM-14 (converted)) was 2.3 ± 0.6 nM. The GI50 (MOLM-14 cells (parental); mean ± SD (Supplementary Table 4), read-out: GI50) was 2.9 ± 1.2 nM, the “Neuropharmacology and respiratory function assessment” value [10] was “no concerns” and the “main target organ of toxicity” value ([10]; repeat daily dose up to 4 weeks) was “lymphoid organs”. For the same compound, the GI50 (TUS/R line 4 (MOLM-14); MOLM-14, read-out: GI50 (nM) TUS/R line 4, mean ± SEM (Supplementary Table 6)) was 144 ± 31 nM and the IC50 (TUS/R line 4 (MOLM-14); MOLM-14, read-out: IC50 (nmol/L), Mean ± SEM, TUS/R line 4) was 144 ± 31.5 nmol/L.
